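The compound was tested at five concentrations on cells cultured in 96-well plates, with a 48-hour exposure period. GI50: concentration for 50% inhibition of growth. TGI is the concentration that stops growth completely.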 Peptide text beside a SMILES is read from it. * marks the point of attachment. OSu = O=C1CCC(=O)N1O*; OBn = c1ccc(CO*)cc1; Bn = c1ccc(C*)cc1
Key:
Assay in all cases: NCI-60 cell line screen, 48 h
NCI-H23 lung = system: NCI-H23 lung
MCF7 breast = system: MCF7 breast
NCI-H460 lung = system: NCI-H460 lung
ACHN renal = system: ACHN renal
OVCAR-4 ovarian = system: OVCAR-4 ovarian
UACC-257 melanoma = system: UACC-257 melanoma
MDA-MB-231 breast = system: MDA-MB-231 breast
A498 renal = system: A498 renal
SF-295 CNS = system: SF-295 CNS
NCI/ADR-RES ovarian = system: NCI/ADR-RES ovarian

For `COc1ccc(/C=C/C(c2cc(OC)c(OC)c(OC)c2)n2cncn2)cc1O` (configuration not stated), the GI50 (NCI-H23 lung) was 3.47 µM, the TGI (NCI-H23 lung) was over 100 µM and the GI50 (MCF7 breast) was 0.033 µM. It also gave a TGI (MCF7 breast) of over 100 µM, a GI50 (NCI-H460 lung) of 0.0423 µM and a TGI (NCI-H460 lung) of 51.9 µM. The GI50 (ACHN renal) was 0.0578 µM, the TGI (ACHN renal) was over 100 µM and the GI50 (OVCAR-4 ovarian) was 7.05 µM. For the same compound, the TGI (OVCAR-4 ovarian) was over 100 µM, the GI50 (UACC-257 melanoma) was over 100 µM and the TGI (UACC-257 melanoma) was over 100 µM. It also gave a GI50 (MDA-MB-231 breast) of 3.02 µM, a TGI (MDA-MB-231 breast) of over 100 µM and a GI50 (A498 renal) of 3.13 µM. It also gave a TGI (A498 renal) of 9.09 µM.
`Clc1cccc(N=C/C=C/Nc2cccc(Cl)c2)c1` gave a TGI (NCI-H23 lung) of 54 µM, a TGI (MCF7 breast) of 43.6 µM and a TGI (NCI-H460 lung) of 35.2 µM. For the same compound, the TGI (SF-295 CNS) was 24.4 µM, the TGI (NCI/ADR-RES ovarian) was 31.4 µM and the TGI (OVCAR-4 ovarian) was over 100 µM. The TGI (UACC-257 melanoma) was 32.2 µM, the TGI (MDA-MB-231 breast) was 29.4 µM and the TGI (A498 renal) was 49.7 µM.
Compound `C=C(COC(=O)C(C)C)[C@H]1Oc2ccc(C(C)=O)cc2[C@@H]1OC(=O)C(C)C` has a TGI (NCI-H23 lung) of over 100 µM, a TGI (MCF7 breast) of over 100 µM and a TGI (NCI-H460 lung) of over 100 µM. It also gave a TGI (SF-295 CNS) of over 100 µM, a TGI (ACHN renal) of over 100 µM and a TGI (OVCAR-4 ovarian) of over 100 µM. For the same compound, the TGI (UACC-257 melanoma) was over 100 µM and the TGI (MDA-MB-231 breast) was over 100 µM.
With `Cc1ccc(Nc2ccc(Nc3ccc(C)cc3S(=O)(=O)O)c3c2C(=O)c2ccccc2C3=O)c(S(=O)(=O)O)c1` the TGI (NCI-H460 lung) was over 100 µM, the TGI (ACHN renal) was over 100 µM and the TGI (OVCAR-4 ovarian) was over 100 µM. It also gave a TGI (UACC-257 melanoma) of over 100 µM and a TGI (A498 renal) of over 100 µM.
Compound `COc1cc(C2C3=C(N=C4SC(C(C)=O)=C(C)N42)c2ccccc2CC3)cc(OC)c1OC` (configuration not stated) has a TGI (NCI-H23 lung) of over 100 µM, a TGI (MCF7 breast) of over 100 µM and a TGI (SF-295 CNS) of over 100 µM. The TGI (NCI/ADR-RES ovarian) was over 100 µM, the TGI (ACHN renal) was over 100 µM and the TGI (OVCAR-4 ovarian) was over 100 µM. For the same compound, the TGI (UACC-257 melanoma) was over 100 µM, the TGI (MDA-MB-231 breast) was over 100 µM and the TGI (A498 renal) was over 100 µM.
In the case of `CCCN(CCC)c1c([N+](=O)[O-])cc(C(=O)N(C)C)cc1[N+](=O)[O-]`, the TGI (NCI-H23 lung) is reported as over 100 µM, the TGI (NCI-H460 lung) is reported as over 100 µM and the TGI (SF-295 CNS) is reported as over 100 µM. It also gave a TGI (ACHN renal) of 30.7 µM, a TGI (OVCAR-4 ovarian) of 29.4 µM and a TGI (UACC-257 melanoma) of over 100 µM.
Compound `Cc1ccc(NC(=O)CC(=O)N2N=C(c3ccccc3)C(N=Nc3ccc(S(=O)(=O)CCOS(=O)(=O)O)cc3)C2=O)cc1` (configuration not stated) has a TGI (NCI-H23 lung) of over 100 µM, a TGI (MCF7 breast) of over 100 µM and a TGI (NCI-H460 lung) of over 100 µM. For the same compound, the TGI (SF-295 CNS) was over 100 µM, the TGI (NCI/ADR-RES ovarian) was over 100 µM and the TGI (ACHN renal) was over 100 µM. It also gave a TGI (UACC-257 melanoma) of over 100 µM, a TGI (MDA-MB-231 breast) of over 100 µM and a TGI (A498 renal) of over 100 µM.
`Cc1[nH]c(=O)[nH]c(=O)c1C(=O)N(CCO)Cc1ccccc1` showed a TGI (NCI-H23 lung) of over 100 µM, a TGI (MCF7 breast) of over 100 µM and a TGI (NCI-H460 lung) of over 100 µM. It also gave a TGI (SF-295 CNS) of over 100 µM, a TGI (ACHN renal) of over 100 µM and a TGI (OVCAR-4 ovarian) of 99.7 µM. For the same compound, the TGI (UACC-257 melanoma) was over 100 µM, the TGI (MDA-MB-231 breast) was over 100 µM and the TGI (A498 renal) was over 100 µM.
For `COC(=O)c1ccccc1N=Cc1ccc(N(CCC#N)S(=O)(=O)c2ccccc2)cc1`, the TGI (NCI-H23 lung) was over 100 µM, the TGI (NCI-H460 lung) was over 100 µM and the TGI (SF-295 CNS) was over 100 µM. The TGI (ACHN renal) was over 100 µM, the TGI (OVCAR-4 ovarian) was over 100 µM and the TGI (UACC-257 melanoma) was over 100 µM. It also gave a TGI (A498 renal) of over 100 µM.
For `Oc1ccccc1C=Nc1ccccc1N=Cc1ccccc1O`, the TGI (NCI-H23 lung) was over 100 µM, the TGI (NCI-H460 lung) was over 100 µM and the TGI (SF-295 CNS) was over 100 µM. For the same compound, the TGI (ACHN renal) was over 100 µM and the TGI (UACC-257 melanoma) was over 100 µM.
In the case of `CC1(CO)C(=O)OC12CCCCC2` (configuration not stated), the TGI (NCI-H23 lung) is reported as over 100 µM, the TGI (SF-295 CNS) is reported as over 100 µM and the TGI (OVCAR-4 ovarian) is reported as over 100 µM. For the same compound, the TGI (UACC-257 melanoma) was over 100 µM and the TGI (A498 renal) was over 100 µM.
`CC(C)CC(NC(=O)C(N)CCC(=O)OCc1ccccc1)C(=O)NC(COCc1ccccc1)C(=O)NC(Cc1ccccc1)C(=O)ON1C(=O)CCC1=O` (configuration not stated) (H-E(OBn)LS(Bn)F-OSu; configuration not given here) showed a TGI (NCI-H23 lung) of 54.3 µM, a TGI (MCF7 breast) of 78.5 µM and a TGI (NCI-H460 lung) of 71.8 µM. It also gave a TGI (SF-295 CNS) of 62.7 µM, a TGI (NCI/ADR-RES ovarian) of 85.3 µM and a TGI (ACHN renal) of over 100 µM. It also gave a TGI (OVCAR-4 ovarian) of over 100 µM, a TGI (UACC-257 melanoma) of 66.1 µM and a TGI (MDA-MB-231 breast) of 40 µM.

Source: PubChem BioAssay (NCI)
